The text below walks through data of patent publication US20240166693A1, “METHODS AND COMPOUNDS FOR MODULATING MYOTONIC DYSTROPY 1” (Design Therapeutics, Inc., priority 2020, published 2024).

The structures appear in SMILES notation. Read-outs that look alike come from different tables or passages of the source. A value given as a limit tells only on which side of the number the result lay.

For orientation: EC50 means the concentration needed to bring the measured effect to its halfway point.

The subject of the assay is Myotonic Dystrophy 1 affected patient fibroblasts (Coriell GM04602; 1600 CTG repeats). The assay can be described thus: DM1 foci reduction assay (CAG10-Cy3 FISH, average foci per nucleus). It is filed as cell-based. To be noted: Homo sapiens, Fibroblast. On the procedure: DM1 foci reduction assay methods: Myotonic Dystrophy 1 affected patient fibroblasts (Coriell GM04602; 1600 CTG repeats) and wild type fibroblasts (Coriell GM07492; control line) were cultured separately in Gibco DMEM (1×)+4.5 g/L D-Glucose+L-Glutamine+110 mg/L Sodium Pyruvate, supplemented with 10% FBS and 1× Pen/Strep. Cells were maintained in incubator at 37° C. and 5% CO2 with media refresh every 48-72 hours.
At 90-95% confluency, both cell lines were harvested using Trypl-E then pelleted at 500×g for 5 minutes and were resuspended in media. DM1 fibroblasts were seeded in Agilent 96 well black plates at a density of 5,000 cells/well in 200 μL media; 8 wells were reserved for control fibroblasts. Plates were returned to incubator for 24 hours at 37° C. and 5% CO2.
Compounds were diluted from 10 mM stock to 1 mM in DMSO, then diluted once more to 6 μM (2× concentration) in media. Media was removed from all plates and cells were replenished with 100 μL media. Cells were treated in 8-point dose response, 1:3 fold dilution, 3 μM top dose via addition of 100 μL of 6 μM (2× concentration) compound to the 100 μL media with cells. Plates were returned to incubator for 48-hour time-course experiment at 37° C. and 5% CO2.
Following treatment, compounds were removed, and plates were washed with PBS, then cells were fixed in 75 μL 4% PFA solution for 20 minutes at room temperature. Plates were washed twice with PBS and twice with cold 70% ethanol before permeabilization with 250 μL cold 70% ethanol for 24-72 hours at −20° C.
After permeabilization, plates were washed once with a 30% formamide and 2×SSC buffer and rehydrated in that buffer for 15 minutes at room temperature. Cells were incubated overnight at 37° C. in 75 μL of a hybridization solution containing 30% formamide, 2×SSC, 25 mg/mL dextran sulfate, 2.5 mg/mL BSA, 0.2 μg/mL Herring sperm DNA, 2 mM vanadyl-ribonucleoside complex, and 5 nM CAG10-Cy3 probe.
Plates were washed once with 30% formamide in 2×SSC buffer, then twice with the buffer for 30 minutes at 37° C., 300 RPM in an incubating plate shaker. Cells were stained with 75 μL of 2.5 μg/mL DAPI in PBS for 5 minutes at room temperature. Plates were then washed twice with PBS and stored in 250 μL PBS. Plates were sealed with adhesive foil and wiped down with 70% ethanol.
Cells were imaged on a Cytation5 with a 20× objective sampling from 4 areas of each well. Nuclei were captured under DAPI channel and foci under RFP channel. Plates were analyzed on an average foci per nucleus per well basis.

[1] abbreviates: 48 h, read-out: Foci Reduction in Fibroblast EC50, 48 h (nM).
Setting [2] is: DM1 fibroblasts, 48 h treatment, 8-point dose response, 3 μM top dose, read-out: Foci Reduction in Fibroblast EC50, 48 h.

In the case of `CC(C)C[C@H](NC(=O)[C@H](C)NC(=O)[C@H](Cc1ccccc1)NC(=O)c1ccc(C(C)(C)C)cc1)C(=O)N[C@@H](CCCCN(C)C1CC2CCC1C2)C(=O)N[C@@H](CO)C(=O)NCCOCCOCCOCCOCCOCCNC(=O)c1cc(NC(=O)c2cc(NC(=O)c3nc(NC(=O)c4cc(NC(=O)[C@@H](N)CCNC(=O)c5nc(NC(=O)CCNC(=O)c6cc(NC(=O)c7nccn7C)cn6C)cn5C)cn4C)cn3C)cn2C)cn1C` (stereo partly drawn) [Compound 84], the concentration for a half-maximal effect (EC50) under setting [1] is above 500 nM.

With `CCN(CC)CCCC[C@H](NC(=O)[C@H](CC(C)C)NC(=O)[C@H](C)NC(=O)[C@H](Cc1ccccc1)NC(=O)c1ccc(C)cc1)C(=O)N[C@@H](CO)C(=O)NCCOCCOCCOCCOCCOCCNC(=O)CCNC(=O)c1nc(NC(=O)c2cc(NC(=O)CCNC(=O)c3nc(NC(=O)CCCNC(=O)c4cc(NC(=O)c5nc(NC(=O)CCNC(=O)c6cc(NC(=O)c7nccn7C)cn6C)cn5C)cn4C)cn3C)cn2C)cn1C` [Compound 85], the EC50 under setting [1] is below 100 nM.

As for `CCN(CC)CCCC[C@H](NC(=O)[C@H](CC(C)C)NC(=O)[C@H](C)NC(=O)[C@H](Cc1ccccc1)NC(=O)c1ccccc1C)C(=O)N[C@@H](CO)C(=O)NCCOCCOCCOCCOCCOCCNC(=O)CCNC(=O)c1nc(NC(=O)c2cc(NC(=O)CCNC(=O)c3nc(NC(=O)CCCNC(=O)c4cc(NC(=O)c5nc(NC(=O)CCNC(=O)c6cc(NC(=O)c7nccn7C)cn6C)cn5C)cn4C)cn3C)cn2C)cn1C` [Compound 86], the EC50 under setting [1] is below 100 nM. Same read-out and setting: next, `CCN(CC)CCCC[C@H](NC(=O)[C@H](CC(C)C)NC(=O)[C@H](C)NC(=O)[C@H](Cc1ccccc1)NC(=O)c1ccccc1)C(=O)N[C@@H](CO)C(=O)NCCOCCOCCOCCOCCOCCNC(=O)CCNC(=O)c1nc(NC(=O)c2cc(NC(=O)CCNC(=O)c3nc(NC(=O)CCCNC(=O)c4cc(NC(=O)c5nc(NC(=O)CCNC(=O)c6cc(NC(=O)c7nccn7C)cn6C)cn5C)cn4C)cn3C)cn2C)cn1C` [Compound 87]: below 100 nM.

Consider `CCN(CC)CCCC[C@H](NC(=O)[C@H](CC(C)C)NC(=O)[C@H](C)NC(=O)[C@H](Cc1ccccc1)NC(=O)c1ccccc1C)C(=O)N[C@@H](CO)C(=O)NCCOCCOCCOCCOCCOCCNC(=O)c1cc(NC(=O)c2cc(NC(=O)c3nc(NC(=O)c4cc(NC(=O)[C@@H](N)CCNC(=O)c5nc(NC(=O)CCNC(=O)c6cc(NC(=O)c7nccn7C)cn6C)cn5C)cn4C)cn3C)cn2C)cn1C` [Compound 89], for which, under setting [1], the concentration giving a half-maximal response (EC50) was above 500 nM.

For the compound `CCN(CC)CCCC[C@H](NC(=O)[C@H](CC(C)C)NC(=O)[C@H](C)NC(=O)[C@H](Cc1ccccc1)NC(=O)c1ccccc1)C(=O)N[C@@H](CO)C(=O)NCCOCCOCCOCCOCCOCCNC(=O)c1cc(NC(=O)c2cc(NC(=O)c3nc(NC(=O)c4cc(NC(=O)[C@@H](N)CCNC(=O)c5nc(NC(=O)CCNC(=O)c6cc(NC(=O)c7nccn7C)cn6C)cn5C)cn4C)cn3C)cn2C)cn1C` [Compound 90], the EC50 under setting [1] is above 500 nM.

Consider `COc1c(OCCOCCOCCOCCOCCOCCNC(=O)CCNC(=O)c2nc(NC(=O)c3cc(NC(=O)CCNC(=O)c4nc(NC(=O)CCCNC(=O)c5cc(NC(=O)c6nc(NC(=O)CCNC(=O)c7cc(NC(=O)c8nccn8C)cn7C)cn6C)cn5C)cn4C)cn3C)cn2C)cccc1C(=O)N1CCN(C(=O)COc2cc(C)cc(C)c2)CC1` [Compound 91], for which the concentration for a half-maximal effect (EC50) under setting [2] was above 500 nM. With `COc1c(OCCOCCOCCOCCOCCOCCNC(=O)CCNC(=O)c2nc(NC(=O)c3cc(NC(=O)CCNC(=O)c4nc(NC(=O)CCCNC(=O)c5cc(NC(=O)c6nc(NC(=O)CCNC(=O)c7cc(NC(=O)c8nccn8C)cn7C)cn6C)cn5C)cn4C)cn3C)cn2C)cccc1C(=O)N1CCN(C(=O)COc2cc(C)c(N)c(C)c2)CC1` [Compound 92], under setting [2], the concentration for a half-maximal effect (EC50) is above 500 nM. Still for that read-out and setting: next, `COc1c(OCCOCCOCCOCCOCCOCCNC(=O)CCNC(=O)c2nc(NC(=O)c3cc(NC(=O)CCNC(=O)c4nc(NC(=O)CCCNC(=O)c5cc(NC(=O)c6nc(NC(=O)CCNC(=O)c7cc(NC(=O)c8nccn8C)cn7C)cn6C)cn5C)cn4C)cn3C)cn2C)cccc1C(=O)N1CCN(C(=O)COc2cc(C)c(NC(N)=O)c(C)c2)CC1` [Compound 93]: above 500 nM.
